Measurements as given in patent publication US20070259860A1, “MGluR5 modulators V” (AstraZeneca AB, priority 2006, published 2007).

Columns and labels:
[1] = target: T1, human mGluR5d (Homo sapiens, UniProt P41594); experiment: FLIPR assay, mGluR5 antagonism in cells expressing human mGluR5d; type: cell-based; conditions: intracellular calcium mobilization, read-out: FLIPR hmGluR5d
T1 construct: expressed in transfected cells
Text: The properties of the compounds of the invention can be analyzed using standard assays for pharmacological activity. Examples of glutamate receptor assays are well known in the art as described in for example Aramori et al., Neuron 8:757 (1992), Tanabe et al., Neuron 8:169 (1992), Miller et al., J. Neuroscience 15: 6103 (1995), Balazs, et al., J. Neurochemistry 69:151 (1997). The methodology described in these publications is incorporated herein by reference. Conveniently, the compounds of the invention can be studied by means of an assay (FLIPR) that measures the mobilization of intracellular calcium, [Ca^2+]i in cells expressing mGluR5 or another assay (IP3) that measures inositol phosphate turnover.
Cells expressing human mGluR5d as described in WO97/05252 are seeded at a density of 100,000 cells per well on collagen coated clear bottom 96-well plates with black sides and experiments are done 24 h following seeding. All assays are done in a buffer containing 127 mM NaCl, 5 mM KCl, 2 mM MgCl2, 0.7 mM NaH2PO4, 2 mM CaCl2, 0.422 mg/ml NaHCO3, 2.4 mg/ml HEPES, 1.8 mg/ml glucose and 1 mg/ml BSA Fraction IV (pH 7.4). Cell cultures in the 96-well plates are loaded for 60 minutes in the above mentioned buffer containing 4 μM of the acetoxymethyl ester form of the fluorescent calcium indicator fluo-3 (Molecular Probes, Eugene, Oreg.) in 0.01% pluronic acid (a proprietary, non-ionic surfactant polyol—CAS Number 9003-11-6). Following the loading period the fluo-3 buffer is removed and replaced with fresh assay buffer. FLIPR experiments are done using a laser setting of 0.800 W and a 0.4 second CCD camera shutter speed with excitation and emission wavelengths of 488 nm and 562 nm, respectively. Each experiment is initiated with 160 μl of buffer present in each well of the cell plate. A 40 μl addition from the antagonist plate was followed by a 50 μL addition from the agonist plate. A 90 second interval separates the antagonist and agonist additions. The fluorescence signal is sampled 50 times at 1 second intervals followed by 3 samples at 5 second intervals immediately after each of the two additions. Responses are measured as the difference between the peak height of the response to agonist, less the background fluorescence within the sample period. IC50 determinations are made using a linear least squares fitting program.

[2] = Determination of brain to plasma ratio in rat; type: in vivo; conditions: brain and plasma, female Sprague Dawley rats, read-out: Brain/Plasma Ratio of compound in Rat
Description: Brain to plasma ratios are estimated in female Sprague Dawley rats. The compound is dissolved in water or another appropriate vehicle. For determination of brain to plasma ratio the compound is administrated as a subcutaneous, or an intravenous bolus injection, or an intravenous infusion, or an oral administration. At a predetermined time point after the administration a blood sample is taken with cardiac puncture. The rat is terminated by cutting the heart open, and the brain is immediately retained. The blood samples are collected in heparinized tubes and centrifuged within 30 minutes, in order to separate the plasma from the blood cells. The plasma is transferred to 96-well plates and stored at −20° C. until analysis. The brains are divided in half, and each half is placed in a pre-tarred tube and stored at −20° C. until analysis. Prior to the analysis, the brain samples are thawed and 3 ml/g brain tissue of distilled water is added to the tubes. The brain samples are sonicated in an ice bath until the samples are homogenized. Both brain and plasma samples are precipitated with acetonitrile. After centrifugation, the supernatant is diluted with 0.2% formic acid. Analysis is performed on a short reversed-phase HPLC column with rapid gradient elution and MSMS detection using a triple quadrupole instrument with electrospray ionisation and Selected Reaction Monitoring (SRM) acquisition. Liquid-liquid extraction may be used as an alternative sample clean-up. The samples are extracted, by shaking, to an organic solvent after addition of a suitable buffer. An aliquot of the organic layer is transferred to a new vial and evaporated to dryness under a stream of nitrogen. After reconstitution of the residuals the samples are ready for injection onto the HPLC column.

[3] = target: hERG-encoded potassium channel (Homo sapiens, UniProt Q12809); experiment: hERG IonWorks; type: cell-based
hERG-encoded potassium channel, sequence (Q12809 whole entry): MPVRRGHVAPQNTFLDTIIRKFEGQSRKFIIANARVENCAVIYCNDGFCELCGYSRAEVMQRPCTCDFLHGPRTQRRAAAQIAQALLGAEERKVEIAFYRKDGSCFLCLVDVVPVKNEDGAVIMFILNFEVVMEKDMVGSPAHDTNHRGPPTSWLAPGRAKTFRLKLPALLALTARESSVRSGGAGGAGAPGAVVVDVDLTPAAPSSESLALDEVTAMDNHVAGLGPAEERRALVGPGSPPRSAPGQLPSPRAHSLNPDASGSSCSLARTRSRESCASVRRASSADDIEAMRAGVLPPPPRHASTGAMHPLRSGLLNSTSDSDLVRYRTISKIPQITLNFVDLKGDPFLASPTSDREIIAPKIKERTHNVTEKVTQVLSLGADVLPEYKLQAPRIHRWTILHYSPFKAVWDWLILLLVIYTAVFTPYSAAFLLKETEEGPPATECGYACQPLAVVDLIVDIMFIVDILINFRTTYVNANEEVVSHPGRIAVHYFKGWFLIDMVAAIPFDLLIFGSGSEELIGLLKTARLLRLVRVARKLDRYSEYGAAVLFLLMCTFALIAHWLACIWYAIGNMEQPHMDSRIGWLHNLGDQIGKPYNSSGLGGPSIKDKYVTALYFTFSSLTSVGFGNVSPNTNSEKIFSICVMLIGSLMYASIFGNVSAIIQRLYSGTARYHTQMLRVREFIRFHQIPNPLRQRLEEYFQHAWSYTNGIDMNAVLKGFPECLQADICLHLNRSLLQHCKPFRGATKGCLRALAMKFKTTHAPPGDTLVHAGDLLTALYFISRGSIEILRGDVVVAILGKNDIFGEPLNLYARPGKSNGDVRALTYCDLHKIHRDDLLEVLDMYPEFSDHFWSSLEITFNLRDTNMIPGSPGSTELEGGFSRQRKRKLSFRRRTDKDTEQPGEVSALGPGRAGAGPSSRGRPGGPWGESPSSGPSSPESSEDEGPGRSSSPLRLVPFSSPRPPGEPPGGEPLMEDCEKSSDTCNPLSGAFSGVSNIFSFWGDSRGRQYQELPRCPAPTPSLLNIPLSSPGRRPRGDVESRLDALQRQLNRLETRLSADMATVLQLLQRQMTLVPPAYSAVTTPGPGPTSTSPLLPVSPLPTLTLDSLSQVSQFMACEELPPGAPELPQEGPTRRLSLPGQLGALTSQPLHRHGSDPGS

[4] = In vitro stability in human liver microsomes (CLint); type: in vitro ADME; conditions: pH 7.4, 0.5 mg/mL protein, 1.0 μmol/L compound, NADPH
Description: Rat liver microsomes are prepared from Sprague-Dawley rats liver samples. Human liver microsomes are either prepared from human liver samples or acquired from BD Gentest. The compounds are incubated at 37° C. at a total microsome protein concentration of 0.5 mg/mL in a 0.1 mol/L potassium phosphate buffer at pH 7.4, in the presence of the cofactor, NADPH (1.0 mmol/L). The initial concentration of compound is 1.0 μmol/L. Samples are taken for analysis at 5 time points, 0, 7, 15, 20 and 30 minutes after the start of the incubation. The enzymatic activity in the collected sample is immediately stopped by adding a 3.5 times volume of acetonitrile. The concentration of compound remaining in each of the collected samples is determined by means of LC-MS. The elimination rate constant (k) of the mGluR5 inhibitor is calculated as the slope of the plot of In[mGluR5 inhibitor] against incubation time (minutes). The elimination rate constant is then used to calculate the half-life (T ½) of the mGluR5 inhibitor, which is subsequently used to calculate the intrinsic clearance (CLint) of the mGluR5 inhibitor in liver microsomes as:
CLint.=(ln2×incubation volume)/(T½×protein concentration)=μl/min/mg

T1 sequence (P41594 21-942 isoform P41594-3 limits assumed): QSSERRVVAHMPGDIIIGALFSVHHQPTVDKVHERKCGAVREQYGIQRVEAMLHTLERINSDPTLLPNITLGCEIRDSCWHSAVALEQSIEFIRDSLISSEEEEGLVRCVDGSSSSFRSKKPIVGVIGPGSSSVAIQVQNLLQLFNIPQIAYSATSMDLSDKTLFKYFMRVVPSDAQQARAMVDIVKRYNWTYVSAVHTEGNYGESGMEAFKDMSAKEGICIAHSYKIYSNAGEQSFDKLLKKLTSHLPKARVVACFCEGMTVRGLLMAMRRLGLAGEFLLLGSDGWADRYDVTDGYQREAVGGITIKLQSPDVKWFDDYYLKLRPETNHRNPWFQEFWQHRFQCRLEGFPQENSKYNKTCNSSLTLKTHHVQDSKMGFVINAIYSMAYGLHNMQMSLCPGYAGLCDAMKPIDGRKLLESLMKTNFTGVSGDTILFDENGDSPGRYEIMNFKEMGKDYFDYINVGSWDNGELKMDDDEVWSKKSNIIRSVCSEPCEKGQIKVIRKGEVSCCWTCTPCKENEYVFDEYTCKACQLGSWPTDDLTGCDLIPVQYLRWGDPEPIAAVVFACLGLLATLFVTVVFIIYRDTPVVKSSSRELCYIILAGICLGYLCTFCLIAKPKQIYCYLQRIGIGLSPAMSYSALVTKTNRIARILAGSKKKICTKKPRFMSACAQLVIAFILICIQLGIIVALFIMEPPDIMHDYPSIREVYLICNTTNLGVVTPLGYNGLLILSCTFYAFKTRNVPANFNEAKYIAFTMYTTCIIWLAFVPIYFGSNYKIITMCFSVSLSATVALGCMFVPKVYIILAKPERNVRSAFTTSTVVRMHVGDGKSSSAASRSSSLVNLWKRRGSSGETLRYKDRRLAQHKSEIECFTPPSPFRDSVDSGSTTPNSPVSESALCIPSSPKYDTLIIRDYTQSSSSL

Structure (SMILES) | IC50 [1] [nM] | Kp [2] | hERG IonWorks [3] [µM] | microsomal CLint at 1 μmol/L [4] [µL/min/mg]
Cc1cccc(-n2nnc(CN3CCCn4c(-c5cccnc5)nnc43)n2)c1 [Example 35.1, 3-Pyridin-3-yl-8-(2-m-tolyl-2H-tetrazol-5-ylmethyl)-5,6,7,8-tetrahydro-[1,2,4]triazolo[4,3-a]pyrimidine] | 37 | 0.005 | 26 | < 12
Clc1cccc(-c2nc(CN3CCCn4c(-c5cccnc5)nnc43)no2)c1 [Example 35.2, 8-{[5-(3-chlorophenyl)-1,2,4-oxadiazol-3-yl]methyl}-3-pyridin-3-yl-5,6,7,8-tetrahydro[1,2,4]triazolo[4,3-a]pyrimidine] | 52 | 0.05 | – | –
Clc1cccc(-c2nc(CN3CCCn4c(-c5cncnc5)nnc43)no2)c1 [Example 35.17, 8-[5-(3-Chloro-phenyl)-[1,2,4]oxadiazol-3-ylmethyl]-3-pyrimidin-5-yl-5,6,7,8-tetrahydro-[1,2,4]triazolo[4,3-a]pyrimidine] | 44 | 0.11 | 22 | 14
C[C@H](c1cc(-c2cccc(Cl)c2)on1)N1CCCn2c(-c3cn[nH]c(=O)c3)nnc21 [Example 59.3, 5-(8-{1-[5-(3-Chloro-phenyl)-isoxazol-3-yl]-ethyl}-5,6,7,8-tetrahydro-[1,2,4]triazolo[4,3-a]pyrimidin-3-yl)-2H-pyridazin-3-one] | 34 | – | 15 | < 12
